Results on 19 compounds are retold here after patent publication US20240000075A1, “FUNGICIDAL ARYL AMIDINES” (CORTEVA AGRISCIENCE LLC, priority 2020, published 2024).

Where two headings read alike, the source gives them in different places.

The subject of one test is Zymoseptoria tritici. Description: Septoria leaf blotch of wheat, whole-plant fungicidal activity (SEPTTR). Particulars: read-out: % Disease Control Rating SEPTTR. The test is classed as in vivo, Zymoseptoria tritici on wheat plants (variety 'Yuma'). Put shortly:
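Compounds in acetone, diluted with nine volumes of water containing 110 ppm Triton X-100, were sprayed to run-off on 'Yuma' wheat seedlings at full first-leaf emergence. Spore inoculation was 3 days before (3DC, curative) or 1 day after (1DP, protectant) treatment, then 3 days at 100% RH and greenhouse. First-leaf disease severity (0–100%) was scored relative to untreated plants as percent control.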

A further test concerns Rhynchosporium commune. Description: Leaf blotch of barley, whole-plant fungicidal activity (RHYNSE). It counts as in vivo. The note with it: 24 h, 1DP (1 day protectant), read-out: % Disease Control Rating RHYNSE. The method, boiled down:
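Barley cv. 'Harrington' at full first-leaf emergence (7-10 seedlings per pot) was sprayed to run-off with compound in acetone plus nine volumes of water containing 110 ppm Triton X-100, air-dried, then inoculated with spore suspension. Plants spent two days in a dark dew room at 100% RH, then moved to greenhouse for disease development.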

A further test has as its system Puccinia triticina. The test is described as follows: Wheat brown rust, whole-plant fungicidal activity (PUCCRT). It counts as in vivo, Puccinia triticina on wheat plants (variety 'Yuma'). The note with it: 24 h, 1DP (1 day protectant), read-out: % Disease Control Rating PUCCRT. Put shortly:
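Wheat 'Yuma' seedlings at first-leaf stage sprayed to run-off with compound from acetone stock diluted in nine volumes water containing 110 ppm Triton X-100, then inoculated with Puccinia triticina spores. Held overnight in dark dew room at 100% RH, then greenhouse for disease development.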

Another test deals with Phakopsora pachyrhizi. The test is described as follows: Asian soybean rust, whole-plant fungicidal activity (PHAKPA). The note with it: read-out: % Disease Control Rating PHAKPA. It counts as in vivo. The method, boiled down: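 Ten-day-old 'Williams 82' soybean seedlings sprayed to run-off with compound in acetone/water (1:9, 0.011% Tween-20), air-dried, then inoculated; 24 h dark dew room at 100% RH, then growth room. Disease severity scored 0–100% on sprayed leaves; percent control relative to untreated plants.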

As to `CCN(C)/C=N/c1cc(C)c(C(=O)Cc2ccc(C(C)C)cc2)cc1C` [Compound 66], the pest or weed control at 200 ppm is over 85% in the test on Zymoseptoria tritici (24 h, 1DP (1 day protectant)); under 20% with Zymoseptoria tritici (72 h, 3DC (3 day curative)); over 85% with Rhynchosporium commune; over 85% in the test with Puccinia triticina; over 85% in the test on Phakopsora pachyrhizi (24 h, 1DP (1 day protectant)); over 85% in the test with Phakopsora pachyrhizi (72 h, 3DC (3 day curative)).

Take `CCN(C)/C=N/c1cc(C)c(C(=O)Cc2ccc(C(C)(C)C)cc2)cc1C` [Compound 67]: the pest or weed control at 200 ppm in the test on Zymoseptoria tritici (24 h, 1DP (1 day protectant)) is over 85%; in the test on Zymoseptoria tritici (72 h, 3DC (3 day curative)), under 20%; in the test with Rhynchosporium commune, over 85%; in the test with Puccinia triticina, over 85%; in the test with Phakopsora pachyrhizi (24 h, 1DP (1 day protectant)), over 85%; in the test on Phakopsora pachyrhizi (72 h, 3DC (3 day curative)) it was over 85%.

Turning to `CCN(C)/C=N/c1cc(C)c(C(=O)Cc2ccc(F)cc2)cc1C` [Compound 68], the pest or weed control at 200 ppm in the test on Zymoseptoria tritici (24 h, 1DP (1 day protectant)) is over 85%; in the test with Zymoseptoria tritici (72 h, 3DC (3 day curative)) it was under 20%; in the test with Rhynchosporium commune, over 85%; in the test on Puccinia triticina, over 85%; in the test on Phakopsora pachyrhizi (24 h, 1DP (1 day protectant)), over 85%; in the test with Phakopsora pachyrhizi (72 h, 3DC (3 day curative)), over 85%.

For `CCN(C)/C=N/c1cc(C)c(C(=O)Cc2ccc(Cl)cc2)cc1C` [Compound 69], the pest or weed control at 200 ppm was 50 to 85% in the test on Zymoseptoria tritici (24 h, 1DP (1 day protectant)); 50 to 85% in the test with Zymoseptoria tritici (72 h, 3DC (3 day curative)); 50 to 85% in the test on Rhynchosporium commune; over 85% in the test with Puccinia triticina; over 85% in the test with Phakopsora pachyrhizi (24 h, 1DP (1 day protectant)); over 85% in the test with Phakopsora pachyrhizi (72 h, 3DC (3 day curative)).

For `CCc1cccc(CC(=O)c2cc(C)c(/N=C/N(C)CC)cc2C)c1` [Compound 70], the pest or weed control at 200 ppm in the test with Zymoseptoria tritici (24 h, 1DP (1 day protectant)) is 50 to 85%; in the test on Zymoseptoria tritici (72 h, 3DC (3 day curative)) it was under 20%; in the test with Rhynchosporium commune, over 85%; with Puccinia triticina it was over 85%; with Phakopsora pachyrhizi (24 h, 1DP (1 day protectant)), over 85%; in the test on Phakopsora pachyrhizi (72 h, 3DC (3 day curative)), over 85%.

On to `CCN(C)/C=N/c1cc(C)c(C(=O)Cc2ccc3c(c2)CCC3)cc1C` [Compound 71], for which the pest or weed control at 200 ppm in the test with Zymoseptoria tritici (24 h, 1DP (1 day protectant)) was 20 to 50%; with Zymoseptoria tritici (72 h, 3DC (3 day curative)) it was under 20%; in the test with Rhynchosporium commune it was over 85%; with Puccinia triticina it was over 85%; with Phakopsora pachyrhizi (24 h, 1DP (1 day protectant)), over 85%; with Phakopsora pachyrhizi (72 h, 3DC (3 day curative)), over 85%.

As for `CCN(C)/C=N/c1cc(OC)c(C(=O)CC2CCCCC2)cc1C` [Compound 72], the pest or weed control at 200 ppm with Zymoseptoria tritici (24 h, 1DP (1 day protectant)) is under 20%; in the test on Zymoseptoria tritici (72 h, 3DC (3 day curative)), under 20%; with Rhynchosporium commune it was under 20%; in the test with Puccinia triticina, over 85%; in the test on Phakopsora pachyrhizi (24 h, 1DP (1 day protectant)), over 85%; in the test on Phakopsora pachyrhizi (72 h, 3DC (3 day curative)) it was over 85%.

Regarding `Cc1cc(C(=O)CC2CCCC2)c(C)cc1/N=C/N(C)C` [Compound 73, (E)-N′-(4-(2-cyclopentylacetyl)-2,5-dimethylphenyl)-N,N-dimethylformimidamide], the pest or weed control at 200 ppm in the test on Zymoseptoria tritici (24 h, 1DP (1 day protectant)) is under 20%; in the test on Zymoseptoria tritici (72 h, 3DC (3 day curative)), under 20%; with Rhynchosporium commune it was under 20%; in the test with Puccinia triticina, over 85%; with Phakopsora pachyrhizi (24 h, 1DP (1 day protectant)) it was over 85%; in the test on Phakopsora pachyrhizi (72 h, 3DC (3 day curative)), over 85%.

For the compound `CCN(C)/C=N/c1cc(C)c(C(=O)CC2CCCC2)cc1OC` [Compound 74], the pest or weed control at 200 ppm in the test with Zymoseptoria tritici (24 h, 1DP (1 day protectant)) was under 20%; in the test with Zymoseptoria tritici (72 h, 3DC (3 day curative)), under 20%; in the test on Rhynchosporium commune, 50 to 85%; in the test on Puccinia triticina it was over 85%; with Phakopsora pachyrhizi (24 h, 1DP (1 day protectant)) it was over 85%; in the test on Phakopsora pachyrhizi (72 h, 3DC (3 day curative)) it was over 85%.

Regarding `CCN(C)/C=N/c1ccc(C(=O)CC2CCCC2)cc1C` [Compound 75], the pest or weed control at 200 ppm in the test on Zymoseptoria tritici (24 h, 1DP (1 day protectant)) is under 20%; with Zymoseptoria tritici (72 h, 3DC (3 day curative)), under 20%; in the test on Rhynchosporium commune, under 20%; in the test with Puccinia triticina, over 85%; in the test with Phakopsora pachyrhizi (24 h, 1DP (1 day protectant)) it was 20 to 50%; in the test on Phakopsora pachyrhizi (72 h, 3DC (3 day curative)), over 85%.

Regarding `Cc1cc(C(=O)Cc2c(F)cc(F)cc2F)c(C)cc1/N=C/N(C)C` [Compound 76], the pest or weed control at 200 ppm with Zymoseptoria tritici (24 h, 1DP (1 day protectant)) is under 20%; in the test with Zymoseptoria tritici (72 h, 3DC (3 day curative)), under 20%; in the test with Rhynchosporium commune it was under 20%; in the test with Puccinia triticina it was over 85%; with Phakopsora pachyrhizi (24 h, 1DP (1 day protectant)) it was over 85%.

As for `CCN(/C=N/c1cc(C)c(C(=O)CC2CCCC2)cc1C)CC` [Compound 77], the pest or weed control at 200 ppm in the test on Zymoseptoria tritici (24 h, 1DP (1 day protectant)) is under 20%; in the test on Zymoseptoria tritici (72 h, 3DC (3 day curative)), under 20%; with Rhynchosporium commune, 20 to 50%; in the test with Puccinia triticina, over 85%; with Phakopsora pachyrhizi (24 h, 1DP (1 day protectant)), over 85%; with Phakopsora pachyrhizi (72 h, 3DC (3 day curative)), over 85%.

For the compound `CCN(/C=N/c1cc(C)c(C(=O)Cc2c(F)cc(F)cc2F)cc1C)CC` [Compound 78], the pest or weed control at 200 ppm is under 20% with Zymoseptoria tritici (24 h, 1DP (1 day protectant)); under 20% in the test with Zymoseptoria tritici (72 h, 3DC (3 day curative)); under 20% in the test with Rhynchosporium commune; over 85% in the test with Puccinia triticina; over 85% in the test on Phakopsora pachyrhizi (24 h, 1DP (1 day protectant)); over 85% in the test with Phakopsora pachyrhizi (72 h, 3DC (3 day curative)).

Turning to `Cc1cc(C(=O)Cc2c(F)cc(F)cc2F)c(C)cc1/N=C/N(C)C(C)C` [Compound 79], the pest or weed control at 200 ppm was under 20% with Zymoseptoria tritici (24 h, 1DP (1 day protectant)); under 20% with Zymoseptoria tritici (72 h, 3DC (3 day curative)); 50 to 85% in the test with Rhynchosporium commune; over 85% in the test on Puccinia triticina; over 85% in the test with Phakopsora pachyrhizi (24 h, 1DP (1 day protectant)).

Regarding `Cc1cc(C(=O)CC2CCCC2)c(C)cc1/N=C/N1CCCCC1` [Compound 80], the pest or weed control at 200 ppm was 50 to 85% with Zymoseptoria tritici (24 h, 1DP (1 day protectant)); under 20% in the test with Zymoseptoria tritici (72 h, 3DC (3 day curative)); over 85% with Rhynchosporium commune; over 85% in the test on Puccinia triticina; over 85% in the test on Phakopsora pachyrhizi (24 h, 1DP (1 day protectant)); over 85% in the test with Phakopsora pachyrhizi (72 h, 3DC (3 day curative)).

As for `Cc1cc(C(=O)Cc2c(F)cc(F)cc2F)c(C)cc1/N=C/N1CCCCC1` [Compound 81], the pest or weed control at 200 ppm was under 20% in the test with Zymoseptoria tritici (24 h, 1DP (1 day protectant)); under 20% with Zymoseptoria tritici (72 h, 3DC (3 day curative)); under 20% with Rhynchosporium commune; over 85% in the test with Puccinia triticina; 50 to 85% in the test on Phakopsora pachyrhizi (24 h, 1DP (1 day protectant)).

On to `Cc1cc(C(=O)CC2CCCC2)c(C)cc1/N=C/N(C)C(C)C` [Compound 82], for which the pest or weed control at 200 ppm is over 85% in the test with Zymoseptoria tritici (24 h, 1DP (1 day protectant)); under 20% in the test on Zymoseptoria tritici (72 h, 3DC (3 day curative)); over 85% with Rhynchosporium commune; over 85% in the test on Puccinia triticina; over 85% in the test with Phakopsora pachyrhizi (24 h, 1DP (1 day protectant)); over 85% in the test with Phakopsora pachyrhizi (72 h, 3DC (3 day curative)).

Take `CCN(C)/C=N/c1cc(C)c(C(=O)Cc2ccccc2OC(F)F)cc1C` [Compound 83]: the pest or weed control at 200 ppm with Zymoseptoria tritici (24 h, 1DP (1 day protectant)) was under 20%; in the test with Zymoseptoria tritici (72 h, 3DC (3 day curative)) it was under 20%; in the test with Rhynchosporium commune, over 85%; with Puccinia triticina, over 85%; in the test with Phakopsora pachyrhizi (24 h, 1DP (1 day protectant)) it was over 85%; with Phakopsora pachyrhizi (72 h, 3DC (3 day curative)), over 85%.

In the case of `CCN(C)/C=N/c1cc(C)c(C(=O)Cc2cccc(OC(F)F)c2)cc1C` [Compound 84], the pest or weed control at 200 ppm is under 20% with Zymoseptoria tritici (24 h, 1DP (1 day protectant)); under 20% in the test on Zymoseptoria tritici (72 h, 3DC (3 day curative)); over 85% in the test on Rhynchosporium commune; over 85% in the test on Puccinia triticina; over 85% with Phakopsora pachyrhizi (24 h, 1DP (1 day protectant)); over 85% in the test with Phakopsora pachyrhizi (72 h, 3DC (3 day curative)).
